Results from article PMC6021390, “A promiscuous cytochrome P450 aromatic O-demethylase for lignin bioconversion” (Nature Communications, 2018).
Like-named read-outs stand apart in the source and are kept apart here.

How the values were obtained:
GcoA = biological target: T1, GcoA (Amycolatopsis sp., UniProt P0DPQ7); assay: Determination of substrate dissociation constants with GcoA (UV/vis spectral shift titration; fluorescence quenching for vanillin); format: binding
T1 construct: GST (N, cleaved yes); made in house; host or cells: E. coli Rosetta 2 (DE3)
T1 sequence (P0DPQ7 1-407): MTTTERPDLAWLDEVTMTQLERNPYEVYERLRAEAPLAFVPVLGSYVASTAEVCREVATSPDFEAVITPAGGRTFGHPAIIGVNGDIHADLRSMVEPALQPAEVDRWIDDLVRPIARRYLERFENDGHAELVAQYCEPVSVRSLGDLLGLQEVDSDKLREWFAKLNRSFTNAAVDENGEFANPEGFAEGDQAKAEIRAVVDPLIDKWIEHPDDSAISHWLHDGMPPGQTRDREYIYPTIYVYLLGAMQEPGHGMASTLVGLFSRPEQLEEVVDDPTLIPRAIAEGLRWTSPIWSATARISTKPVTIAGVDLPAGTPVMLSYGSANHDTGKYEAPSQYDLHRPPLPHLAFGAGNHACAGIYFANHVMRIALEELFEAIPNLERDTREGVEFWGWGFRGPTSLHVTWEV
Method: A total of 0–60 µM of substrate analogs, in 0.25 or 0.5 µM aliquots, were titrated into a cuvette containing 1–6 µM GcoA in 25 mM HEPES, 50 mM NaCl, pH 7.5. The spectrum after each substrate addition was recorded, beginning with no substrate bound. The solution reached equilibrium before the next addition. A difference spectrum was made to illustrate the shift from a low-spin aquo-heme complex to the high-spin substrate-bound complex (spectral shift from 417 nm to 388 nm). […] The absorbance at 388 nm was plotted as a function of [substrate], yielding a quadratic curve that was fit to Eq. (7) to determine the KD.7 ΔAbsobs=ΔAbsmax/2EtL0+Et+KD-L0+Et+KD^2-4Et*L0. Where L0, Et, KD, and ΔAbsmax are the ligand concentrations, total protein (subunit) concentration, the equilibrium dissociation constant, and the maximum Abs388–417 nm, respectively. Reported values are the average of 2 or more measurements.
Since the UV/vis spectra of vanillin and heme overlap, fluorescence quenching was monitored to determine the KD. […] Fluorescence emission intensity was followed upon titration of vanillin (0–350 µM) after equilibrium had been established. The % fluorescence quenched, Eq. (8), was plotted as a function of vanillin and fit to Eq. (7) above, replacing ΔAbsmax with ΔFluorescencemax.8 %Fquenched=Fmax-Fintensity/Fmax×100%.

GcoAB [1] = biological target: T2, GcoAB (Amycolatopsis sp., UniProt P0DPQ7); assay: Aldehyde product determination (tryptophan assay for formaldehyde, dehydrogenase assay for acetaldehyde) versus NADH consumed; format: biochemical, Amycolatopsis sp. ATCC 39116; parameters: GST (N, cleaved yes); made in house; host or cells: E. coli Rosetta 2 (DE3); conditions: formaldehyde (acetaldehyde for guaethol); saturating substrate, 300 μM NADH, 0.2 μM GcoAB
T2 sequence (P0DPQ7 1-407): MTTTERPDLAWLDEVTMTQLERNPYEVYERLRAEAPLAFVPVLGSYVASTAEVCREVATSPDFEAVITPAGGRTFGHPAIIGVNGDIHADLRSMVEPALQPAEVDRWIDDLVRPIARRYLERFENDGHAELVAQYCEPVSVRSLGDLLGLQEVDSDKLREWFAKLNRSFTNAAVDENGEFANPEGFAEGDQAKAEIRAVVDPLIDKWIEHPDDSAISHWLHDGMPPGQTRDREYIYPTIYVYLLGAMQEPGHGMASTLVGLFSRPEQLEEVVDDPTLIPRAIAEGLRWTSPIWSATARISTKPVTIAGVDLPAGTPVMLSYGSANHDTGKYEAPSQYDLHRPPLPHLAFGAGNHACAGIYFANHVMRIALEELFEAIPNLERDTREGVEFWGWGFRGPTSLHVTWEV
T2 sequence (P0DPQ8 1-334 partner): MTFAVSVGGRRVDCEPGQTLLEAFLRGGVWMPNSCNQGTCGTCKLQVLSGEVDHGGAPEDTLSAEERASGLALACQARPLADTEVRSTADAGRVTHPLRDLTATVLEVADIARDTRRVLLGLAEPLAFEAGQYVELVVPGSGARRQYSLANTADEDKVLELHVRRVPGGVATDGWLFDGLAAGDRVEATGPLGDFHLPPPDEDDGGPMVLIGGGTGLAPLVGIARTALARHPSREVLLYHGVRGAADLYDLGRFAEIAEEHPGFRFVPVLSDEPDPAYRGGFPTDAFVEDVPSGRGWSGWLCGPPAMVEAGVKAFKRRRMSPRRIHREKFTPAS
From the text: For the quantification of formaldehyde (demethylation) or acetaldehyde (de-ethylation) production, the reaction was monitored via UV/vis or fluorescence (in the case of vanillin) using the same set of conditions as outlined above for specific activity determination. After eight minutes, aliquots of the sample were removed and carried onto the respective aldehyde detection assay. For reactions that produced formaldehyde (e.g., all substrates except guaethol), a colorimetric tryptophan assay was used, described previously. Briefly, 200 µL of the reaction was quenched by adding 200 µL of 0.1% tryptophan solution in 50% ethanol, 200 µL 90% sulfuric acid and 40 µL of 1% FeCl3. The solution was then incubated in a heating block for 90 min at 70 °C. After cooling, the absorbance was read at 575 nm and the [formaldehyde] calculated by comparing to a standard curve made with 0–320 µM formaldehyde. A reaction with just the assay components was treated in the same manner as the reaction samples and used as a baseline. Control reactions included everything but GcoA/B, catalase, and substrate. Reported values are the average of ≥3 measurements.
[Acetaldehyde] produced during the dealkylation of guaethol was also determined by using a colorimetric assay and a generated acetaldehyde standard curve. A kit from BioAssays was used. Briefly, 20 µL of the reacted sample was transferred to a 96-well plate and 80 µL of the working reagent, consisting of NAD/MTT and aldehyde dehydrogenase, was added. The reaction was incubated for 30 min at room temperature and the absorbance read at 565 nm. Aldehyde dehydrogenase and NAD react with acetaldehyde to produce acetic acid and NADH. […] Control reactions included samples without substrate and/or aldehyde dehydrogenase. Reported values are the average of ≥3 measurements.

GcoAB [2] = biological target: T2, GcoAB; assay: HPLC quantification of demethylated aromatic product versus NADH consumed; format: biochemical, Amycolatopsis sp. ATCC 39116; parameters: GST (N, cleaved yes); made in house; host or cells: E. coli Rosetta 2 (DE3); conditions: saturating substrate, 300 μM NADH, 0.2 μM GcoAB
Method: Analyte analysis of samples was performed on an Agilent 1200 LC system (Agilent Technologies, Santa Clara, CA) equipped with a G1315A diode array detector (DAD). Each sample and standard was injected at a volume of 10 μL onto a Phenomenex Luna C18(2) column 5 μm, 4.6 × 150 mm column (Phenomenex, Torrance, CA). The column temperature was maintained at 30 °C and the buffers used to separate the analytes of interest was 0.05% acetic acid in water (A)/ acetonitrile (B). The separation was carried out using a gradient program of: (A) = 99% and (B) = 1% at time t = 0; (A) = 99% and (B) = 1% at time t = 5, (A) = 50% and (B) = 50% at t = 35 min; (A) = 1% and (B) = 99% at t = 35.01 min; (A) = 99% and (B) = 1% at t = 37.01 min; (A) = 99% and (B) = 1% at t = 47.00 min. The flow rate was held constant at 0.6 mL min^−1 resulting in a run time of 47 min. Calibration curve concentration for each analyte varied between the ranges of 2.5–200 µg L^−1. A DAD wavelength of 225 nm was used for analysis of the analytes of interest. […] A minimum of 3–5 calibration levels was used with an r^2 coefficient of 0.995 or better for each analyte and a check calibration standard (CCS) was analyzed every 10 samples to insure the integrity of the initial calibration.

LigX = system: T3, LigX; assay: Cited steady-state O-demethylation of 5,5'-dehydrodivanillate (10-500 uM) by 0.2 uM LigXa, 6 uM LigXc and 0.4 uM LigXd with 500 uM NADH in FE22 buffer, pH 6.0, 30 °C, air.; format: biochemical; conditions: cited from earlier work
T3 construct: LigXa with LigXc and LigXd

GcoAB [3] = biological target: T2, GcoAB
Method: The demethylation of guaiacol and substrate analogs was continuously monitored under steady-state conditions. […] A total of 100 µg/mL catalase was added to each reaction to capture any H2O2 formed during the uncoupled reaction. […] A total of 20–300 µM guaiacol (preferred substrate) or an alternate substrate from a 2.5 mM stock dissolved in DMSO was added and the reaction was monitored via measurement of UV/vis spectra for several minutes. […] A plot of vi vs [guaiacol] was fit to Eq. (2) to obtain kcat, KM, and kcat/KM. For specific activity determination, the above method was used but with saturating (300 µM) guaiacol. […] Reported values are the average of ≥3 measurements and reported errors are standard deviations.
Reactions with vanillin were performed in the same manner described above.

[4] = 1–6 μM GcoA, 25 °C, 25 mM HEPES, 50 mM NaCl, pH 7.5, read-out: Compound KD

Compound	Kd (GcoA; [4]) [nM]	Aldehyde produced per NADH consumed (GcoAB [1])	Demethylated product: amount produced per NADH consumed (GcoAB [2])	Km (LigX) [µM]	reduction in kcat compared to guaiacol (GcoAB [3])	Kd (GcoA; binding to GcoA, read-out: KD) [nM]	specific activity (GcoAB [3]; 300 μM guaiacol, 0.2 μM GcoA/B, 300 μM NADH, pH 7.5, 25 °C)	kcat (GcoAB [3]; Supplementary Figure 20, 0.2 μM GcoA/B, 300 μM NADH, ambient O2, pH 7.5, 25 °C) [s⁻¹]	kcat (GcoAB [3]; Supplementary Table 4, 0.2 μM GcoA/B, 300 μM NADH, 5-300 μM guaiacol, pH 7.5, 25 °C, air) [s⁻¹]
COc1ccccc1C [2-methylanisole]	1000 ± 100	0.90 ± 0.1	0.20 ± 0.04	–	–	–	–	–	–
COc1cccc(O)c1O [3-methoxycatechol]	3700 ± 100	0.90 ± 0.04	0.97 ± 0.002	–	–	–	–	–	–
COc1cc(C(=O)O)cc(-c2cc(C(=O)O)cc(OC)c2O)c1O [5,5'-dehydrodivanillate]	–	–	–	64	–	–	–	–	–
COc1ccccc1 [Anisole]	1700 ± 200	1.1 ± 0.01	0.62 ± 0.1	–	–	–	–	–	–
CCOc1ccccc1O [Guaethol]	70 ± 30	1.5 ± 0.14	1.4 ± 0.3	–	almost fivefold reduction	–	–	–	–
COc1ccccc1O [Guaiacol, 2-methoxyphenol]	6 ± 2	1.2 ± 0.15	1.2 ± 0.3	–	–	6	4.6 mM NADH sec-1 [mM GcoA]-1	6.8 ± 0.5	6.8 ± 0.5
